Source: patent US20040197859A1, “Isolated dna molecules encoding humanized calcitonin gene-related peptide receptor, related non-human transgenic animals and assay methods” (priority 2001, published 2004)

Columns and labels:
[1] = target: rCRLR/rRAMP1 (rat) (UniProt Q63118); assay: competitive radioligand binding against 10 pM 125I-hCGRP, membranes of transfected 293 EBNA cells
[2] = target: T1, rCRLR/hRAMP1 (UniProt O60894+Q63118); assay: competitive 125I-hCGRP binding, membranes expressing hybrid rCRLR/hRAMP1; parameters: species or system rat CRLR, human RAMP1; conditions: Table 4
T1 construct: expressed in transfected cells; host or cells: 293 EBNA cells, transient co-transfection, membranes
Protocol: (§1) Cell Culture and DNA Transfection—293 EBNA cells were cultured in DMEM with 4.5 g/L glucose, 1 mM sodium pyruvate and 2 mM glutamine supplemented with 10% Fetal Bovine Serum (FBS), 100 units/mL penicillin and 100 μg/mL streptomycin, and maintained at 37° C. and 95% humidity. Cells were subcultured by treatment with 0.25% trypsin with 0.1% EDTA in HBSS.
Twenty-four hours prior to transfection, the cells were seeded at 2.0×10^7/dish in 500 cm^2 dishes. The following day, the cells were re-fed with fresh growth medium 1 hour before transfection. Transfections were performed by combining 60 μg/dish DNA with 180 μg/dish Lipofectamine 2000 (Life Technologies). cDNA's for CRLR and RAMP1 in the mammalian expression vector pcDNA3.1 were co-transfected in equal amounts. The transfection cocktail was added directly to the medium and this mixture was replaced with fresh medium 24 hours later. The cells were harvested for membranes 48 hours post-transfection. […]
For binding assays, 1.5-25 μg of membranes (dependent upon receptor expression levels) were incubated for 3 hours at room temperature in binding buffer (10 mM HEPES, 5 mM MgCl2, 0.2% BSA) containing 10 pM ^125I-hCGRP (Amersham) in a total volume of 1 mL. […] Data were analyzed by using GraphPad Prism.

[3] = target: T2, rCRLR/rRAMP1 (native rat CGRP receptor) (Rattus norvegicus, UniProt Q63118+Q9JJ74); assay: competitive 125I-hCGRP binding, membranes expressing rCRLR/rRAMP1
T2 construct: expressed in transfected cells; host or cells: 293 EBNA cells, transient co-transfection, membranes
Protocol: as §1
(§2) Twenty-four hours prior to transfection, the cells were seeded at 2.0×10^7/dish in 500 cm^2 dishes. The following day, the cells were re-fed with fresh growth medium 1 hour before transfection. Transfections were performed by combining 60 μg/dish DNA with 180 μg/dish Lipofectamine 2000 (Life Technologies). cDNA's for CRLR and RAMP1 in the mammalian expression vector pcDNA3.1 were co-transfected in equal amounts. The transfection cocktail was added directly to the medium and this mixture was replaced with fresh medium 24 hours later. The cells were harvested for membranes 48 hours post-transfection.
(§3) Membrane Preparation and Radioligand Binding Studies—Transiently transfected 293 EBNA cells were washed once with PBS and harvested in harvest buffer containing 50 mM HEPES, 1 mM EDTA and Complete protease inhibitors (Roche).

[4] = target: T3, rCRLR/rK74W RAMP1 (Rattus norvegicus, UniProt Q63118+Q9JJ74, K74W); assay: competitive 125I-hCGRP binding, membranes expressing rCRLR and mutant rK74W RAMP1; conditions: Table 6
T3 construct: and the rRAMP1 expression vector construct as template; expressed in transfected cells; host or cells: 293 EBNA cells, transient co-transfection, membranes
Protocol: Rat RAMP1 site-directed mutagenesis was performed by using the Quick Change Site-directed Mutagenesis Kit (Stratagene) according to the manufacturer's instructions. […] of rRAMP1 was replaced with the corresponding human/marmoset amino acid tryptophan utilizing two complementary mutant oligonucleotide primers ([NT] ID NO:27] and [NT] ID NO:28]) and the rRAMP1 expression vector construct as template. This mutation was accomplished by substituting the codon TGG corresponding to tryptophan (r[…] RAMP1). All constructs were sequenced bidirectionally with 100% coverage in each direction. Cell Culture and DNA Transfection-293 EBNA cells were cultured in DMEM with 4.5 g/L glucose, 1 mM sodium pyruvate and 2 mM glutamine supplemented with 10% Fetal Bovine Serum (FBS), 100 units/mL penicillin and 100 μg/mL streptomycin, and maintained at 37° C. and 95% humidity. Cells were subcultured by treatment with 0.25% trypsin with 0.1% EDTA in HBSS. Twenty-four hours prior to transfection, the cells were seeded at 2.0×10^7/dish in 500 cm^2 dishes. The following day, the cells were re-fed with fresh growth medium 1 hour before transfection. Transfections were performed by combining 60 μg/dish DNA with 180 μg/dish Lipofectamine 2000 (Life Technologies). cDNA's for CRLR and RAMP1 in the mammalian expression vector pcDNA3.1 were co-transfected in equal amounts. […] Data were analyzed by using GraphPad Prism. […]

[5] = target: T4, mCRLR/mRAMP1 (native mouse receptor) (Mus musculus, UniProt Q9R1W5+Q9WTJ5); assay: competitive binding, membranes expressing mCRLR/mRAMP1; conditions: Table 7
T4 construct: expressed in transfected cells
Protocol: as §1, §2, §3

[6] = target: T5, mCRLR/mK74W RAMP1 (Mus musculus, UniProt Q9R1W5+Q9WTJ5, K74W); assay: competitive binding, membranes expressing mCRLR and mutant mK74W RAMP1; conditions: Table 7
T5 construct: The mouse RAMP1 expression vector construct was used as template; expressed in transfected cells
Protocol: as §1, §2, §3

[7] = target: human CGRP receptor (Homo sapiens, UniProt O60894+Q16602); conditions: cited from earlier work
[8] = target: T6, rCRLR/Chimera 1 (Rattus norvegicus, UniProt Q63118+Q9JJ74, D29E/D31N/E46V/G64R/I36L/I51V/K45Q/K53E/K61R/P30A/Q37R/R28Q/R43Q/S42T/T34A/T50A/V24T); assay: competitive 125I-hCGRP binding, membranes expressing rCRLR with RAMP1 Chimera 1; parameters: species or system rat CRLR, human/rat chimeric RAMP1; conditions: Table 5; rCRLR/Chimera 1 (first 66 aa of rRAMP1 replaced with human)
T6 construct: expressed in transfected cells; host or cells: 293 EBNA cells, transient co-transfection, membranes
Text: Two human/rat chimeric RAMP1 cDNAs were constructed by using restriction fragments of the corresponding native cDNAs. Chimera 1 was created by replacing the nucleotides coding for the first 66 amino acids of rRAMP1 with the corresponding nucleotides of hRAMP1 by using the BsgI restriction site along with a NheI site located in the cloning vector. Chimera 2 was created by replacing the nucleotides coding for the first 112 amino acids of rRAMP1 with the corresponding nucleotides of hRAMP1 by using the SanDI restriction site along with a NheI site located in the cloning vector. Cell Culture and DNA Transfection-293 EBNA cells were cultured in DMEM with 4.5 g/L glucose, 1 mM sodium pyruvate and 2 mM glutamine supplemented with 10% Fetal Bovine Serum (FBS), 100 units/mL penicillin and 100 μg/mL streptomycin, and maintained at 37° C. and 95% humidity. Cells were subcultured by treatment with 0.25% trypsin with 0.1% EDTA in HBSS. Twenty-four hours prior to transfection, the cells were seeded at 2.0×10^7/dish in 500 cm^2 dishes. The following day, the cells were re-fed with fresh growth medium 1 hour before transfection. Transfections were performed by combining 60 μg/dish DNA with 180 μg/dish Lipofectamine 2000 (Life Technologies). cDNA's for CRLR and RAMP1 in the mammalian expression vector pcDNA3.1 were co-transfected in equal amounts. […] Data were analyzed by using GraphPad Prism. […]

IC50 [1]	Compound	IC50 [2]	IC50 ([3]; Table 4)	IC50 ([3]; Table 6)	IC50 [4]	IC50 [5]	IC50 [6]	higher affinity for the human CGRP receptor than for the rat receptor ([7]; human vs rat, Doods et al.)	lower affinity for CGRP receptors from rat, rabbit, dog, and guinea pig ([7]; versus human CGRP receptor, Doods et al. 2000)	IC50 [8]
2 nM	CGRP8-37 (peptide)	–	–	–	–	–	–	–	–	–
–	NCCCC[C@H](NC(=O)[C@@H](Cc1cc(Br)c(O)c(Br)c1)NC(=O)N1CCC(N2Cc3ccccc3NC2=O)CC1)C(=O)N1CCN(c2ccncc2)CC1 [BIBN4096BS]	0.41 nM	6.9 nM	5.5 nM	0.08 nM	8.5 nM	0.1 nM	200 fold	200 fold	4.8 nM
